Test results reported in patent US9193736B2, “PDE 10a inhibitors for the treatment of type II diabetes” (Janssen Pharmaceutica, NV, priority 2013, dated 2015).
Where a name gives a salt, the structure may show the parent alone.

Columns and labels:
[1] = biological target: Rat recombinant PDE10a (rPDE10a) (Rattus norvegicus (Rat), UniProt Q9QYJ6); test: In vitro assay PDE10a: rat recombinant PDE10a SPA with 3H-cAMP substrate, IC50; assay type: biochemical; details: 60 nM cAMP, read-out: rPDE10a2 IC50
Sequence of Rat recombinant PDE10a (rPDE10a) (Q9QYJ6 whole entry): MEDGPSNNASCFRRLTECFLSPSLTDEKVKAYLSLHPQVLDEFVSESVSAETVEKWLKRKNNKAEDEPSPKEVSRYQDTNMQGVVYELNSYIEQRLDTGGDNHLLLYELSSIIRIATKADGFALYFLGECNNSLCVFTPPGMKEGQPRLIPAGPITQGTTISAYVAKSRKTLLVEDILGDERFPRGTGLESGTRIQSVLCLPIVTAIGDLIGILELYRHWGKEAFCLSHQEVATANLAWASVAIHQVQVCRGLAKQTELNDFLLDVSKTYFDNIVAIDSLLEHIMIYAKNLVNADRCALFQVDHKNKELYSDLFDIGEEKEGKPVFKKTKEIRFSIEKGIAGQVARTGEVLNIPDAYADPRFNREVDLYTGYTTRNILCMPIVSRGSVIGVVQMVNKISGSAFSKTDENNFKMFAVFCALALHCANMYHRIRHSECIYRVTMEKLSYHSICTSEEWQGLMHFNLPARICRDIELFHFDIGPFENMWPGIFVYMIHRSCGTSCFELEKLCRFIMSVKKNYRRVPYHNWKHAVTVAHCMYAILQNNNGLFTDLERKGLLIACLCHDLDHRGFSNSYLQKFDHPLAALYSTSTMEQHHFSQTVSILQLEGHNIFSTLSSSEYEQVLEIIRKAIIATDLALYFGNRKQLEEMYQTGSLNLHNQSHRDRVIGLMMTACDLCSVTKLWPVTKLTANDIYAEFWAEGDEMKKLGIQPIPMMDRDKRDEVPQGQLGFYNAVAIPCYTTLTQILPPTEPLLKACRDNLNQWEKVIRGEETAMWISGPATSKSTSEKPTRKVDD
Summary of the method: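 Enzyme expressed in Sf9 cells via baculovirus and Ni-sepharose purified; reaction with 3H-cAMP ran 60 min at rt, stopped with PDE SPA beads. Compounds diluted in DMSO at 100-fold final concentration; blanks omitted enzyme.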

[2] = biological target: Human recombinant PDE10A2 (Homo sapiens (Human), UniProt Q9Y233); test: In vitro hPDE10a: human recombinant PDE10A2 scintillation proximity assay, IC50; assay type: biochemical; details: human recombinant PDE10A2, SPA, 60 nM cAMP; read-out: hPDE10a2 IC50
Sequence of Human recombinant PDE10A2 (Q9Y233 267-1055): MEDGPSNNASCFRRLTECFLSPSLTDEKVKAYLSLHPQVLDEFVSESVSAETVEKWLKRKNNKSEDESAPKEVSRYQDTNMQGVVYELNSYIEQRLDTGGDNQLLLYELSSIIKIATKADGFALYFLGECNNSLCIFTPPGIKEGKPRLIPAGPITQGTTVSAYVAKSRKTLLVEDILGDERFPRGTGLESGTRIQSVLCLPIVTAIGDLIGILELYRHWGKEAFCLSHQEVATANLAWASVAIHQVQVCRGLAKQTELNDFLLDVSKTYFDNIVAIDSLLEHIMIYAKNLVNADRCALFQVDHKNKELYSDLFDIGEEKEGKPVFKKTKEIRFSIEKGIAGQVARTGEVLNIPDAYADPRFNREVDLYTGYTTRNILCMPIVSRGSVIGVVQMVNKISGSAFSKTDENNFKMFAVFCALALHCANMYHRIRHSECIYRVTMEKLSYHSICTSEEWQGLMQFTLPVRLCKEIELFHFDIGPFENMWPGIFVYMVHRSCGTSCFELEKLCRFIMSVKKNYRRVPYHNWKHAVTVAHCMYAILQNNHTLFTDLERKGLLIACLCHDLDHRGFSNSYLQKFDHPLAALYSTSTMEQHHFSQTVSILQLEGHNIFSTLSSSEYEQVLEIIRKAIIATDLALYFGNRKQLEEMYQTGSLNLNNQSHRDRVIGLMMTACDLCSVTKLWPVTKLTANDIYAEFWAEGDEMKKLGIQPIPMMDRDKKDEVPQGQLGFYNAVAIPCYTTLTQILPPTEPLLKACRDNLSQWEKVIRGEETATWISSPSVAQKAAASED
Summary of the method: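 Purified recombinant human PDE10A2 (Ni-sepharose) was assayed by SPA, counting [3H]-AMP product captured on yttrium silicate beads added in zinc sulphate stop solution. Inhibition was expressed as % of activity without compound, with a no-enzyme low control. Repeat data points were aggregated.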

Row | Compound | IC50 [1] | IC50 [2]
1 | O=C(O)C1CCN(c2c(/C=C/c3ccc4ccccc4n3)nc3c(N4CCOCC4)ccnn23)CC1 [Cpd 131, (E)-1-(8-Morpholino-2-(2-(quinolin-2-yl)vinyl)imidazo[1,2-b]pyridazin-3-yl)piperidine-4-carboxylic acid trifluoroacetic acid salt] | 5 nM | 7 nM
2 | CS(=O)(=O)NC(=O)CCc1ccc(-c2c(/C=C/c3ccc4ccccc4n3)nc3c(N4CCOCC4)ccnn23)cc1 [Cpd 132, (E)-N-(Methylsulfonyl)-3-(4-(8-morpholino-2-(2-(quinolin-2-yl)vinyl)imidazo[1,2-b]pyridazin-3-yl)phenyl)propanamide trifluoroacetic acid salt] | 15 nM | 11 nM
3 | COc1cccc(/C=C/c2nc3c(N4CCOCC4)ccnn3c2-c2ccc(C(=O)O)cc2)n1 [Cpd 133, 4-{2-[(E)-2-(6-Methoxypyridin-2-yl)ethenyl]-8-morpholin-4-ylimidazo[1,2-b]pyridazin-3-yl}benzoic acid] | 70 nM | 62 nM
4 | COc1cc(/C=C/c2nc3c(N4CCOCC4)ccnn3c2-c2ccc(C(=O)O)cc2)nc2ccccc12 [Cpd 135, 4-{2-[(E)-2-(4-Methoxyquinolin-2-yl)ethenyl]-8-morpholin-4-ylimidazo[1,2-b]pyridazin-3-yl}benzoic acid] | 10 nM | 6 nM
5 | O=C(O)c1cccc2nc(/C=C/c3nc4c(N5CCOCC5)ccnn4c3-c3cccnc3)ccc12 [Cpd 137, (E)-2-(2-(8-Morpholino-3-(pyridin-3-yl)imidazo[1,2-b]pyridazin-2-yl)vinyl)quinoline-5-carboxylic acid sodium salt] | 1 nM | 3 nM
6 | O=C(O)c1ccc(Nc2c(/C=C/c3ccc4ccccc4n3)nc3c(N4CCOCC4)ccnn23)cc1 [Cpd 138, (E)-4-((8-Morpholino-2-(2-(quinolin-2-yl)vinyl)imidazo[1,2-b]pyridazin-3-yl)amino)benzoic acid] | 2 nM | 5 nM
7 | O=C(O)c1ccc(Nc2c(/C=C/c3ccc4ccccc4n3)nc3c(N4CCOCC4)ccnn23)c(F)c1 [Cpd 139, (E)-3-Fluoro-4-((8-morpholino-2-(2-(quinolin-2-yl)vinyl)imidazo[1,2-b]pyridazin-3-yl)amino)benzoic acid] | 2 nM | 1 nM
8 | CS(=O)(=O)NC(=O)c1cccc2nc(/C=C/c3nc4c(N5CCOCC5)cc(Cl)nn4c3-c3cccnc3)ccc12 [Cpd 141, (E)-2-(2-(6-Chloro-8-morpholino-3-(pyridin-3-yl)imidazo[1,2-b]pyridazin-2-yl)vinyl)-N-(methylsulfonyl)quinoline-5-carboxamide] | 23 nM | 58 nM
9 | O=C(O)c1cc2ccccc2nc1/C=C/c1cn2nc(Cl)cc(N3CCOCC3)c2n1 [Cpd 143, 2-[(E)-2-(6-Chloro-8-morpholin-4-ylimidazo[1,2-b]pyridazin-2-yl)ethenyl]quinoline-3-carboxylic acid] | < 1 nM | 1 nM
10 | O=C(O)c1cc2ccccc2nc1/C=C/c1cn2nccc(N3CCOCC3)c2n1 [Cpd 144, 2-[(E)-2-(8-Morpholin-4-ylimidazo[1,2-b]pyridazin-2-yl)ethenyl]quinoline-3-carboxylic acid] | < 1 nM | < 1 nM
11 | CS(=O)(=O)NC(=O)c1cccc2nc(/C=C/c3nc4c(N5CCOCC5)ccnn4c3-c3ccccn3)ccc12 [Cpd 145, (E)-N-(Methylsulfonyl)-2-(2-(8-morpholino-3-(pyridin-2-yl)imidazo[1,2-b]pyridazin-2-yl)vinyl)quinoline-5-carboxamide] | 2 nM | 4 nM
12 | O=C(O)c1ccc(-c2c([C@@H]3C[C@@H]3c3ccc4ccccc4n3)nc3c(N4CCOCC4)cc(Cl)nn23)cc1 [Cpd 147, 4-(6-Chloro-8-morpholino-2-((1R,2S)-2-(quinolin-2-yl)cyclopropyl)imidazo[1,2-b]pyridazin-3-yl)benzoic acid trifluoroacetic acid salt] | 4 nM | 7 nM
13 | COc1cccc(-c2c(/C=C/c3ccc4c(C(=O)NS(C)(=O)=O)cccc4n3)nc3c(N4CCOCC4)ccnn23)c1 [Cpd 150, (E)-2-(2-(3-(3-Methoxyphenyl)-8-morpholinoimidazo[1,2-b]pyridazin-2-yl)vinyl)-N-(methylsulfonyl)quinoline-5-carboxamide] | 6 nM | 6 nM
14 | O=C(O)C1CCC(Nc2c(/C=C/c3ccc4ccccc4n3)nc3c(N4CCOCC4)ccnn23)CC1 (centres unmarked) [Cpd 152, (E)-4-((8-Morpholino-2-(2-(quinolin-2-yl)vinyl)imidazo[1,2-b]pyridazin-3-yl)amino)cyclohexanecarboxylic acid] | 15 nM | 7 nM
15 | O=C(O)CC1CCN(c2c(/C=C/c3ccc4ccccc4n3)nc3c(N4CCOCC4)ccnn23)CC1 [Cpd 156, (E)-2-(1-(8-Morpholino-2-(2-(quinolin-2-yl)vinyl)imidazo[1,2-b]pyridazin-3-yl)piperidin-4-yl)acetic acid] | 7 nM | 7 nM
16 | O=C(O)c1ccc(-c2c(C3CN(c4ccc5ccccc5n4)C3)nc3c(N4CCOCC4)ccnn23)cc1 [Cpd 157, 4-(8-Morpholino-2-(1-(quinolin-2-yl)azetidin-3-yl)imidazo[1,2-b]pyridazin-3-yl)benzoic acid] | 2 nM | 2 nM
17 | C(=C\c1nc2c(N3CCOCC3)ccnn2c1-c1ccc(N2CCNCC2)nc1)/c1ccc2ccccc2n1 [Cpd 177, (E)-4-(3-(6-(piperazin-1-yl)pyridin-3-yl)-2-(2-(quinolin-2-yl)vinyl)imidazo[1,2-b]pyridazin-8-yl)morpholine trifluoroacetic acid salt] | 10 nM | 21 nM
18 | CC(=O)NS(=O)(=O)c1ccc(-c2c(/C=C/c3ccc4ccccc4n3)nc3c(N4CCOCC4)ccnn23)cc1 [compound 36, (E)-N-((4-(8-Morpholino-2-(2-(quinolin-2-yl)vinyl)imidazo[1,2-b]pyridazin-3-yl)phenyl)sulfonyl)acetamide] | 2 nM | 2 nM
19 | NS(=O)(=O)c1ccc(-c2c(CCc3ccc4ccccc4n3)nc3c(N4CCOCC4)ccnn23)cc1 [compound 38, 4-(8-Morpholino-2-(2-(quinolin-2-yl)ethyl)imidazo[1,2-b]pyridazin-3-yl)benzenesulfonamide] | 4 nM | 7 nM
20 | CS(=O)(=O)Nc1ccc(-c2c(CCc3ccc4ccccc4n3)nc3c(N4CCOCC4)ccnn23)cc1 [compound 45, N-(4-(8-Morpholino-2-(2-(quinolin-2-yl)ethyl)imidazo[1,2-b]pyridazin-3-yl)phenyl)methanesulfonamide] | 5 nM | 8 nM
21 | O=C(O)CCNC(=O)c1ccc(-c2c(CCc3ccc4ccccc4n3)nc3c(N4CCOCC4)ccnn23)cc1 [compound 46, 3-(4-(8-Morpholino-2-(2-(quinolin-2-yl)ethyl)imidazo[1,2-b]pyridazin-3-yl)benzamido)propanoic acid] | 1 nM | 3 nM
22 | CS(=O)(=O)Nc1ccc(-c2c(/C=C/c3ccc4ccccc4n3)nc3c(N4CCOCC4)ccnn23)cc1 [compound 47, (E)-N-(4-(8-Morpholino-2-(2-(quinolin-2-yl)vinyl)imidazo[1,2-b]pyridazin-3-yl)phenyl)methanesulfonamide] | 11 nM | 14 nM
